Test results: ChEMBL document CHEMBL1128902, “Selectively deoxygenated sulfated tetrasaccharides as probes for the investigation of smooth muscle cell antiproliferative activity” (1996)

Species on record: Rattus norvegicus
Assay: Antiproliferative activity against rat smooth muscle cell (SMC) expressed as relative activity compared to heparin; ri is relative inhibitory activity
Assay type: functional

| SMILES | Relative inhibitory activity |
| --- | --- |
| C[C@@H]1O[C@H](O[C@H]2[C@H](O)[C@H](O)[C@H](O[C@H]3[C@H](O)[C@H](O)[C@@H](O[C@H]4O[C@H](CO)[C@@H](O)[C@@H](O)[C@@H]4O)O[C@H]3CO)O[C@H]2CO)[C@@H](O)[C@@H](O)[C@@H]1O | 0.6 |
| OC[C@H]1O[C@H](O[C@H]2O[C@H](CO)[C@@H](O[C@H]3O[C@H](CO)[C@@H](O[C@H]4O[C@H](CO)[C@@H](O)[C@H](O)[C@H]4O)[C@H](O)[C@H]3O)[C@H](O)[C@H]2O)[C@H](O)[C@@H](O)[C@@H]1O | 0.9 |
